Assays:
smooth muscle cells = assay: smooth muscle proliferation stimulated by PDGF and IL-1; assay type: cell-based; settings: drug added two hours prior to activation
Text: CT1501R and PTX were separately added to the cells two hours prior to activation with PDGF and IL-1.

[1] = system: PBMC (peripheral blood mononuclear cells); assay: two-way mixed lymphocyte reaction (MLR); assay type: cell-based, human
Text: Various in vitro assays can be used to measure effects of the inventive compounds to module immune activity and have antitumor activity using a variety of cellular types. For example, a mixed lymphocyte reaction (MLR) provides a valuable screening tool to determine biological activity of each inventive compound. In the MLR, PBMCs (peripheral blood mononuclear cells) are obtained by drawing whole blood from healthy volunteers in a heparinized container and diluted with an equal volume of hanks balanced salt solution (HBSS). This mixture is layered on a sucrose density gradient, such as a Ficoll-Hypaque® gradient (specific gravity 1.08), and centrifuged at 1000×g for 25 minutes at room temperature or cooler. PBMC are obtained from a band at a plasma-Ficoll interface, separated and washed at least twice in a saline solution, such as HBSS. Contaminating red cells are lysed, such as by ACK lysis for 10 min at 37° C., and the PBMCs are washed twice in HBSS. The pellet of purified PBMCs is resuspended in complete medium, such as RPMI 1640 plus 20% human inactivated serum. Proliferative response of PBMC to allogeneic stimulation is determined in a two-way MLR performed in a 96-well microliter plate. […] At the conclusion of the incubation tritiated thymidine is added (for example, 1 μCi/well of 40 to 60 Ci/mmole) and proliferation determined by liquid scintillation counting. […]

[2] = system: hair follicles of nu/nu mice; assay: nude mouse hair studies, topical application; assay type: in vivo; settings: second experiment; 60% ETOH, 10% water, 30% PEG base, twice daily, 34 days
Text: This example illustrates nude mouse hair studies involving topical application of CT1501R. Six to eight week old, female, nu/nu mice from Charles River Laboratories were housed at Biosupport Research Support Services (Seattle, Wash.) in autoclaved micro isolator units with hyperchlorinated autoclaved water, irradiated rodent chow and kept under a laminar flow hood. Caging was changed weekly, and water was changed twice weekly. The mice were acclimated for 5 days before beginning each study.
The first topical formulation was prepared by adding CT1501R to a heated hydrophilic ointment (USP) at a 1% concentration, and allowed to solidify.
Nude mice were painted twice daily for 16 days with the first topical formulation of CT1501R on the left flank and another compound in the same base on the right flank with sterile applicators. Mice were handled under the laminar flow hood with applicator wearing face mask and sterile gloves. After 16 days, one mouse was sacrificed by cervical dislocation and skin biopsies were taken of the treated areas of the shoulder/flank and from the non-treated area of the dorsal pelvis (rump). Specimens were placed in 10% buffered formalin solution. Biopsies were sent to a veterinary dermopathologist for histopathology. Six weeks following treatment, a second mouse was euthanatized and biopsied the same as the first. Samples were sent for histopathology.
In a second experiment, topical application of CT1501R was performed along with a commercial topical minoxidil preparation (Rogaine®, Upjohn) that is approved for a hair growth indication. Five to six week old, female, nu/nu mice from Bantin and Kingman Universal were housed at Biosupport Research Support Services (Seattle, Wash.) in autoclaved micro isolator units with hyper chlorinated autoclaved water, irradiated rodent chow and kept under a laminar flow hood. Caging was changed weekly, and water was changed twice weekly. Mice were acclimated for 7 days before beginning study, […]

Row | SMILES | inhibition of smooth muscle cell proliferation (smooth muscle cells) | proliferative response of PBMC to allogeneic stimulation [1] | hair follicles, subjective histopathological examination [2]
1 | CC(=O)CCCCn1c(=O)c2c(ncn2C)n(C)c1=O [PTX, 1-(5-oxohexyl)-3,7-dimethylxanthine, reference compound] | inhibited smooth muscle cell proliferation at the higher doses tested | showed dose-response activity | –
2 | Nc1cc(N2CCCCC2)nc(N)[n+]1[O-] [minoxidil, reference compound] | – | – | fair response to treatment
